These results are taken from paper PMC3466269, “A Comprehensive Strategy to Discover Inhibitors of the Translesion Synthesis DNA Polymerase κ” (PLoS ONE, 2012).

Usually IC50 stands for the concentration needed to halve the response being measured.

Assay [1] addresses T1, Human pol η (residues 1–437) (Homo sapiens, UniProt Q9Y253).
T1 construct: Human pol η (residues1–437) was purified following the same procedures; made in house
T1 sequence (Q9Y253 1-437): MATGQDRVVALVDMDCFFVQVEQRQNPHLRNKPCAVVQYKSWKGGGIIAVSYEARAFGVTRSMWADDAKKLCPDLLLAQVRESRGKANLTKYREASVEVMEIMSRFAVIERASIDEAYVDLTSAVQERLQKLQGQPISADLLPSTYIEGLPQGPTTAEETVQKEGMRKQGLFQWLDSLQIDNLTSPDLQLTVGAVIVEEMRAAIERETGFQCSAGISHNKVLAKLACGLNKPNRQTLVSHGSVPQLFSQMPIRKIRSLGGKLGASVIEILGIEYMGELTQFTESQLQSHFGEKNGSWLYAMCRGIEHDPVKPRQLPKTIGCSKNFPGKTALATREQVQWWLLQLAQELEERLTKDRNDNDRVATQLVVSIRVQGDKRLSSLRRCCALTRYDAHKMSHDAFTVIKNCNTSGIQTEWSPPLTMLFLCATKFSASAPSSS
The assay can be described thus: Radioactive gel-based primer extension assay on non-damaged DNA, pol η. Format: biochemical. Particulars: average ± standard error, three experiments. The method, then: The reactions with pol κ, pol η, and pol ι were carried out in the buffers containing 25 mM Tris-HCl, pH 7.5, 8 mM MgCl2, 10% glycerol, 100 µg/mL bovine serum albumin, and 5 mM DTT. Buffers for pol δ reactions contained 40 mM Hepes-KOH, pH 6.8, 10% glycerol, 200 µg/mL bovine serum albumin, 1 mM DTT, and 8 mM MgCl2. Final concentration of pol κ, pol η, pol ι, or pol δ in the reaction was 0.25 nM, 1 nM, 2.5 nM, or 4 nM, respectively. In this assay, a polymerase was preincubated with the compound for 15 min at room temperature. Primer extensions were then initiated by the addition of DNA substrate at final concentration of 5 nM and carried out for 30 min at room temperature in the presence of 100 µM dCTP and dGTP. The reactions were terminated by the addition of an equal volume of a dye solution containing 95% (v/v) formamide, 10 mM EDTA, 0.03% (w/v) xylene cyanol, and 0.03% (w/v) bromphenol blue. Reaction products were separated through a 15% acrylamide gel containing 8 M urea and visualized with a PhosphorImager screen. The ratio of extended primer to the total amount of primer was measured using ImageQuant 5.2 software to calculate the percentage of primer extended. IC50 values were determined by fitting the data to variable slope four-parameter equations using GraphPad Prism 5. […]

In assay [2] the test system is double-stranded DNA ladder. The assay can be described thus: DNA intercalation assay (agarose gel shift of DNA ladder). In kind it is binding. The settings on record: 0.75 or 3 nmol compound with 1.5 nmol DNA, 1% agarose gel. The procedure:
Candesartan cilexetil or ethidium bromide was incubated with 1.5 nmol of double-stranded DNA ladder for 15 min at room temperature in the buffer containing 50 mM Tris-HCl, pH 8.0, 0.01% Tween-20, 1 mM DTT, and 40 mM NaCl. The reaction mixtures were run on 1% agarose gel and stained with ethidium bromide (0.5 µg/ml) for visualization.
Figure 7 The non-DNA-intercalating property of candesartan cilexetil. Candesartan cilexetil or ethidium bromide was incubated with double-stranded DNA ladder, and the reaction products were run on 1% agarose gel and stained with ethidium bromide. Lane 1: No compound. Lane 2: 0.75 nmol of candesartan cilexetil was incubated with 1.5 nmol DNA. Lane 3: 3 nmol of candesartan cilexetil was incubated with 1.5 nmol DNA. Lane 4: 0.75 nmol of ethidium bromide was incubated with 1.5 nmol DNA. Lane 5: 3 nmol of ethidium bromide was incubated with 1.5 nmol DNA.
On the technique in general: Mobility shift assays separate free from complexed probe on a gel.

The next assay has as its target T2, Human pol κ (Homo sapiens, UniProt Q9UBT6).
T2 construct: Human pol κ (residues 19–526) was purified as previously reported; made in house
T2 sequence (Q9UBT6 19-526): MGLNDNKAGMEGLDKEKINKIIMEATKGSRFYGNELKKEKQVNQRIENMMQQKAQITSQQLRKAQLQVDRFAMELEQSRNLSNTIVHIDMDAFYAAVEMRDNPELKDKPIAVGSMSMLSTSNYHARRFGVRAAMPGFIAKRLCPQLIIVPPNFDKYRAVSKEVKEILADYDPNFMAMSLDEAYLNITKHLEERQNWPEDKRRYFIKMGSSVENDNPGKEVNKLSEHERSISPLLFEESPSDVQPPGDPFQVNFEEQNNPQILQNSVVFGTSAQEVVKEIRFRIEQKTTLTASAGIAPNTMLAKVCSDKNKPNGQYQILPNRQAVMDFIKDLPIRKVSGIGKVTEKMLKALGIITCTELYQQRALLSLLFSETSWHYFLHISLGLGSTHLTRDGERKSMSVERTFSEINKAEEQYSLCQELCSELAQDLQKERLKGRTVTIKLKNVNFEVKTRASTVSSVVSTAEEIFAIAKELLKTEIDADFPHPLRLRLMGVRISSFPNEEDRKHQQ
The experiment in a line: Radioactive gel-based primer extension (TLS) past acrolein-derived ring-opened reduced form of γ-HOPdG, pol κ. In kind it is biochemical. Particulars: primer extension, adducted DNA, 0.25 nM pol κ; average ± standard error, three experiments; read-out: gel: ring-opened reduced form of γ-HOPdG: IC50. The method, then:
The reactions with pol κ, pol η, and pol ι were carried out in the buffers containing 25 mM Tris-HCl, pH 7.5, 8 mM MgCl2, 10% glycerol, 100 µg/mL bovine serum albumin, and 5 mM DTT. Buffers for pol δ reactions contained 40 mM Hepes-KOH, pH 6.8, 10% glycerol, 200 µg/mL bovine serum albumin, 1 mM DTT, and 8 mM MgCl2. Final concentration of pol κ, pol η, pol ι, or pol δ in the reaction was 0.25 nM, 1 nM, 2.5 nM, or 4 nM, respectively. In this assay, a polymerase was preincubated with the compound for 15 min at room temperature. Primer extensions were then initiated by the addition of DNA substrate at final concentration of 5 nM and carried out for 30 min at room temperature in the presence of 100 µM dCTP and dGTP. The reactions were terminated by the addition of an equal volume of a dye solution containing 95% (v/v) formamide, 10 mM EDTA, 0.03% (w/v) xylene cyanol, and 0.03% (w/v) bromphenol blue. Reaction products were separated through a 15% acrylamide gel containing 8 M urea and visualized with a PhosphorImager screen. The ratio of extended primer to the total amount of primer was measured using ImageQuant 5.2 software to calculate the percentage of primer extended. IC50 values were determined by fitting the data to variable slope four-parameter equations using GraphPad Prism 5.
The primary role of pol κ is to bypass DNA lesions. Therefore, it was critical to establish the assays to investigate the capability of these compounds to inhibit lesion bypass activity of pol κ. Radioactive gel-based primer extension reactions were carried out using a DNA substrate containing a site-specific acrolein-derived ring-opened reduced form of γ-HOPdG, a lesion that pol κ can efficiently bypass in vitro [13].

For `CCOc1nc2cccc(C(=O)OC(C)OC(=O)OC3CCCCC3)c2n1Cc1ccc(-c2ccccc2-c2nnn[nH]2)cc1` (stereo not drawn) [candesartan cilexetil, Candesartan cilexetil], the figures for the concentration for half-maximal inhibition (IC50) (in assay [1]; on Human pol κ) were 11.2 ± 1 µM and 11 ± 1.5 µM, respectively. Also, in assay [2], the “DNA migration pattern (intercalation)” value is on record as “no difference in DNA migration pattern”.
